Test results: patent US20260224532A1, “ESTROGEN RECEPTOR BETA LIGANDS FOR THE PREVENTION AND TREATMENT OF MULTIPLE SCLEROSIS (MS) AND OTHER DEMYELINATING, INFLAMMATORY AND NEURODEGENERATIVE DISEASES” (The Board of Trustees of the University of Illinois, priority 2023, published 2026)

Experiments:
[1] = target: T1, purified, full length human ERα (Homo sapiens, UniProt P03372); test: Relative binding affinity (RBA) radiometric competitive binding assay, ERα; settings: for RBA ERα: relative binding affinity, E2 (estradiol) is 100%, tritiated estradiol tracer; for binding affinity for ERα (in words): compared with the other 7-substituted indazoles
T1 construct: purified, full length human ERα and ERβ
T1 sequence (P03372 1-595): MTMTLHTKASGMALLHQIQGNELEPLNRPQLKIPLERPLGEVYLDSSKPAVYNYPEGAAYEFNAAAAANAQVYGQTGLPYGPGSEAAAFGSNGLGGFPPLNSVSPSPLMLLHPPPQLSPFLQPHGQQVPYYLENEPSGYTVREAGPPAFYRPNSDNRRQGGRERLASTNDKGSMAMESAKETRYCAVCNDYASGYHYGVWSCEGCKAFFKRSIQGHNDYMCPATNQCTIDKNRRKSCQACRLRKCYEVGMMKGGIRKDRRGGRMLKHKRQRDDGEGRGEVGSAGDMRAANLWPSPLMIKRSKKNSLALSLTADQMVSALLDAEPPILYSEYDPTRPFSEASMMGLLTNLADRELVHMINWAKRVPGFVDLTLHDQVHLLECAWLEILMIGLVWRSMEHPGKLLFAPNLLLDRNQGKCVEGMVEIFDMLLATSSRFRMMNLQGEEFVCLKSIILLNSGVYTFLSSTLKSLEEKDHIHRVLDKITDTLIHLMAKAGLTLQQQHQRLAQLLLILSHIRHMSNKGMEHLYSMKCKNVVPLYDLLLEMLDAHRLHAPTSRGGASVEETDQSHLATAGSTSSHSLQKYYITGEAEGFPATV

[2] = target: T2, purified, full length human ERβ (Homo sapiens, UniProt Q92731); test: Relative binding affinity (RBA) radiometric competitive binding assay, ERβ; settings: for β/α (ERβ/ERα selectivity): ratio of RBA ERβ to RBA ERα; for RBA ERβ: relative binding affinity, E2 (estradiol) is 100%, tritiated estradiol tracer; for selectivity of binding to ERβ vs ERα: text statement of the β/α ratio; for binding affinity for ERβ (in words): compared with the other 7-substituted indazoles
T2 construct: purified, full length human ERα and ERβ
T2 sequence (Q92731 whole entry): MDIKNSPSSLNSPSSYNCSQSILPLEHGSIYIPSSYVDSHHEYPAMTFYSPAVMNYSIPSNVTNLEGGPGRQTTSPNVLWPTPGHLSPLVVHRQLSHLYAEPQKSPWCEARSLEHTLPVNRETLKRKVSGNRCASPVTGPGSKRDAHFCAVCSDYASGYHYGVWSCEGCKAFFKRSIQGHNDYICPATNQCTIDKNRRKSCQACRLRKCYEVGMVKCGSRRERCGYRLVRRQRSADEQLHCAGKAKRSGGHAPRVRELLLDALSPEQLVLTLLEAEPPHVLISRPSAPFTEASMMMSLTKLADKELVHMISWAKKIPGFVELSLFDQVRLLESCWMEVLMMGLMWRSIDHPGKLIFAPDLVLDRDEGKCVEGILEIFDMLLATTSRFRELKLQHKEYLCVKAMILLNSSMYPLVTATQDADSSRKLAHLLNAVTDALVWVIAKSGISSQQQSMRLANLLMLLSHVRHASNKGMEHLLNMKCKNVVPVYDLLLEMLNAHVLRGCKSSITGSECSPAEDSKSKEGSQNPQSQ

Primary OPCs = test: Primary OPC culture: MBP+ OL differentiation and total cell count (DAPI); type: cell-based, mouse; settings: for number of MBP+ OLs with increased percentage of branched OLs, compared to vehicle-treated cells / total number of cells (DAPI): 10 nM
Protocol: Primary OPC Cultures: Primary OPCs, isolated from postnatal day P1 C57BL/6 male and female mouse cortices as described previously, are treated with 10 nM ligands in differentiating medium for […] (Tiwari-Woodruff et al., 2001; Tiwari-Woodruff et al., 2006). Primary OPC are cultured into 8-well chamber slides (three wells per condition, 2.5×10^5 cells/well) for three days to attach and five days in differentiating media (consisting of DMEM-F12 with triiodothyronine- and thyroxine-containing Sato as well as penicillin, streptomycin, insulin, N-acetyl-L-cysteine, forskolin, ciliary neurotrophic factor, neurotrophin-3, and platelet-derived growth factor […] (Tiwari-Woodruff et al., 2001)). A positive control (IndC1), a negative control (Vehicle consisting of the media+EtOH mixture used to dissolve IndCl), and a normal control (differentiating media alone) are used for comparison. At the end of the treatment period, cells are fixed, stained by immunocytochemistry (primary antibody polyclonal chicken myelin basic protein (MBP, Millipore AB9348), and co-stained with nuclear stain-DAPI), and imaged with an Olympus BX61 confocal microscope (Olympus America Inc., Center Valley, PA) at 10× magnification (3 images per well). Cells are counted using the ImageJ multipoint tool, and counts are then divided by the image area (mm^2). Average cell density for each condition is then divided by the normal condition cell density. Analysis of OL differentiation consists of counting the number of MBP+ cells and process extensions that are longer than the respective cell-body diameter and tracking the number of highly branched MBP+ cells (with three or more processes) (Monnerie et al., 2017). Statistics are performed using GraphPad Prism 6 Software (La Jolla, CA). One-way ANOVA with Tukey's posthoc test for multiple comparisons is used to generate p-values, and data are presented as mean±SEM (with α≤0.05).
FIG. 1A-1D show the effects of treatment with the 7-substituted indazole compounds on the expression of myelin basic protein in OLs (MBP^+-OLs, top two panels) as an indication of murine oligodendrocyte precursor cell (OPC) differentiation, as well as the count of the total cells as an indication of cell proliferation/survival (DAPI nucleus stain, bottom two panels). The cells were treated with the listed compounds at 10 nM (FIG. 1A, 1B) and at 1 nM (FIG. 1C, 1D).

[3] = test system: Cuprizone-Induced Demyelinated Mouse Model; test: Myelin recovery in the cuprizone-induced demyelinated mouse model (MOG IHC, Corpus Callosum); type: in vivo, C57BL/6 female mice; settings: SC 5 mg/kg, 1.5-weeks treatment after 6 weeks cuprizone
Protocol: The Cuprizone assay of demyelination-remyelination was conducted by the methods described previously (Moore et al. 2013; Crawford et al, 2009a,b). A group of animals was on normal diet (N groups). The remainder of the mice were divided into groups of 5 and all of these groups of mice were fed cuprizone diet at (0.2% cuprizone mixed in chow). After 6 weeks on cuprizone diet-induced demyelination, a group of 5 mice were perfused (DM group). The other groups of mice were switched to normal diet for 1.5 weeks to initiate remyelination and were treated with either (i) Vehicle (SC+V) or (ii) test compound at a dose of 5 mg/kg. […] After 1.5 weeks of normal diet-induced remyelination, the mice were perfused. Brains were collected, cryoprotected, embedded, cut, and IHC for myelin oligodendrocyte glycoproteins (MOG) was performed. Cuprizone study results after 1.5-weeks treatment with the designated 7-substituted compounds via SC administration following 6 weeks cuprizone treatment of (C57BL/6) female mice are shown in FIG. 5. The height of each bar graph represents level of myelination assessed by the expression of MOG in the white matter tracks of the Corpus Callosum area quantified by immunohistochemical analysis (IHC) after staining with a MOG antibody. N: Normal diet, DM: Demyelinated status after 6 weeks cuprizone treatment, SC-Veh: Spontaneous remyelination after injection with matrix in saline solution only (without compound; recovery is only about 40%). (Mice: ~2 months age, SC: Subcutaneous injection, n=5). Cuprizone study results for the 3-weeks treatment with the 6-substituted compound 17 via SC administration following the 6 weeks of 0.2% cuprizone treatment of C57BL/6 female mice are shown in FIG. 6. The height of each bar graph represents level of myelination assessed by the expression of MOG in the white matter tracks of the Corpus Callosum area quantified by immunohistochemical analysis (IHC) after staining with a MOG antibody. N: Normal diet, DM: Demyelinated status after 6 weeks cuprizone treatment, SC-Veh: Spontaneous remyelination after injection with matrix in saline solution only (without compound; recovery is only about 40%). (Mice: ~2 months age, SC: Subcutaneous injection, n=5~6). […] (Mice: ~2 months age, s.c.: Subcutaneous administration, n=5).

Structure (SMILES)	RBA ERα [1] [%]	β/α (ERβ/ERα selectivity) [2]	RBA ERβ [2] [%]	selectivity of binding to ERβ vs ERα [2] [fold]	number of MBP+ OLs with increased percentage of branched OLs, compared to vehicle-treated cells (Primary OPCs)	remyelination (MOG expression in Corpus Callosum) [3]	binding affinity for ERα (in words) [1]	binding affinity for ERβ (in words) [2]	MBP expression / number of MBP+ OLs, compared to vehicle-treated cells (Primary OPCs; 1 nM)	total number of cells (DAPI) (Primary OPCs)
Cc1cc(O)cc2c(Cl)n(-c3ccc(O)cc3)nc12 [Compound 11, 3-Chloro-7-methyl-2-(4-hydroxyphenyl)-2H-indazol-5-ol]	2.76	17	45.9	–	–	–	–	–	–	–
Oc1ccc(-n2cc3cc(O)cc(Br)c3n2)cc1 [Compound 1, 7-bromo-2-(4-hydroxyphenyl)-2H-indazol-5-ol]	0.244	131	32.01 ± 0.09	131	significant increase	–	–	–	–	–
Oc1ccc(-n2cc3cc(O)cc(Cl)c3n2)c(F)c1 [Compound 15, 7-chloro-2-(2-fluoro-4-hydroxyphenyl)-2H-indazol-5-ol]	0.052	185	9.63	185	–	–	–	–	–	–
Oc1ccc(-n2nc3cc(Cl)c(O)cc3c2Cl)cc1 [Compound 19, 3,6-dichloro-2-(4-hydroxyphenyl)-2H-indazol-5-ol]	0.055	15.49	0.852	–	–	–	–	–	–	–
Cc1cc(O)ccc1-n1nc2cc(Cl)c(O)cc2c1Cl [Compound 20, 3,6-dichloro-2-(4-hydroxy-2-methylphenyl)-2H-indazol-5-ol]	0.071	2.63	0.187	–	–	–	–	–	–	–
Oc1ccc(-n2cc3cc(O)cc(F)c3n2)cc1 [Compound 8, 7-fluoro-2-(4-hydroxyphenyl)-2H-indazol-5-ol]	0.258	87	22.4	–	–	–	–	–	–	–
Oc1cccc(-n2nc3c(Br)cc(O)cc3c2Cl)c1 [Compound 12, 7-Bromo-3-chloro-2-(3-hydroxyphenyl)-2H-indazol-5-ol]	0.16	246	39.4	246	–	does not accelerate remyelination	–	–	–	–
Cc1cc(O)ccc1-n1nc2c(O)cc(O)cc2c1Cl [Compound 22, 3-chloro-2-(4-hydroxy-2-methylphenyl)-2H-indazole-5,7-diol]	0.0005	12	0.006	–	–	–	lower binding affinity	lower binding affinity	–	–
Oc1ccc(-n2nc3c(F)cc(O)cc3c2Cl)cc1 [Compound 9, 3-Chloro-7-fluoro-2-(4-hydroxyphenyl)-2H-indazol-5-ol]	2.2	37	82.3	–	–	–	–	–	–	–
Cc1cc(O)ccc1-n1nc2cc(F)c(O)cc2c1Cl [Compound 18, 3-Chloro-6-fluoro-2-(4-hydroxy-2-methylphenyl)-2H-indazol-5-ol]	0.545	4.64	2.53	–	significant increase	–	–	–	significant increase	–
Oc1ccc(-n2nc3c(Br)cc(O)cc3c2F)cc1 [Compound 2, 7-bromo-3-fluoro-2-(4-hydroxyphenyl)-2H-indazol-5-ol]	2.27	70.1	–	–	–	–	–	–	–	reduction
Oc1cc(Cl)c2nn(-c3ccc(O)c(F)c3)c(Cl)c2c1 [Compound 14, 3,7-dichloro-2-(3-fluoro-4-hydroxyphenyl)-2H-indazol-5-ol]	0.86	38.3	32.96	–	significant increase	somewhat less remyelination	–	–	–	–
Oc1cc(Cl)c2nn(-c3ccc(O)c(F)c3)cc2c1 [Compound 13, 7-Chloro-2-(3-fluoro-4-hydroxyphenyl)-2H-indazol-5-ol]	0.023	469	10.76	469	–	–	–	–	–	–
Oc1ccc(-n2nc3c(Br)cc(O)cc3c2Br)cc1 [Compound 4, 3,7-dibromo-2-(4-hydroxyphenyl)-2H-indazol-5-ol]	21.29	7	–	–	–	–	–	–	–	–
Oc1ccc(-n2nc3c(Br)cc(O)cc3c2Cl)cc1 [Compound 3, 7-bromo-3-chloro-2-(4-hydroxyphenyl)-2H-indazol-5-ol]	15.57	18	–	–	–	–	–	–	–	reduction
Oc1ccc(-n2cc3cc(O)cc(Cl)c3n2)cc1 [Compound 6, 7-chloro-2-(4-hydroxyphenyl)-2H-indazol-5-ol]	0.098	200	19.6 ± 6.1	200	–	–	–	–	–	–
Oc1ccc(-n2nc3c(O)cc(O)cc3c2Cl)cc1 [Compound 21, 3-chloro-2-(4-hydroxyphenyl)-2H-indazole-5,7-diol]	0.001	51	0.051	–	–	–	lower binding affinity	lower binding affinity	–	–
Cc1cc(O)cc2cn(-c3ccc(O)cc3)nc12 [Compound 10, 7-methyl-2-(4-hydroxyphenyl)-2H-indazol-5-ol]	0.018	144	2.59	144	–	–	–	–	–	–
Oc1ccc(-n2nc3c(Cl)cc(O)cc3c2Cl)c(F)c1 [Compound 16, 3,7-dichloro-2-(2-fluoro-4-hydroxyphenyl)-2H-indazol-5-ol]	4.71	6.74	31.76	–	–	–	–	–	–	–
